# Active and inactive are the calls of the source. The calls are words filed in the database; no cut-off is given here.
# How the values were obtained:
# [1] = test system: PC-12; assay: Protection against H2O2-induced apoptosis in rat PC-12 cells assessed as necrotic cells at 5 uM pretreated for 12 hrs followed by H2O2 challenge by annexin V FITC/propidium iodide staining based flow cytometry (reference value: 3.7 %); assay type: functional
# [2] = test system: PC-12; assay: Protection against 6-OHDA-induced apoptosis in rat PC-12 cells assessed as late apoptotic cells at 5 uM pretreated for 12 hrs followed by 6-OHDA challenge by annexin V FITC/propidium iodide staining based flow cytometry (reference value: 17.3 %); assay type: functional
# [3] = target: T1, Nuclear factor erythroid 2-related factor 2 (Mus musculus) (UniProt Q60795); assay: Activation of Nrf2 in mouse BV-2 cells assessed as upregulation of Nrf2 protein expression after 24 hrs by Western blot analysis; assay type: cell-based; settings: filed as activator, dose 2.5-10 µM
# T1 sequence (whole entry): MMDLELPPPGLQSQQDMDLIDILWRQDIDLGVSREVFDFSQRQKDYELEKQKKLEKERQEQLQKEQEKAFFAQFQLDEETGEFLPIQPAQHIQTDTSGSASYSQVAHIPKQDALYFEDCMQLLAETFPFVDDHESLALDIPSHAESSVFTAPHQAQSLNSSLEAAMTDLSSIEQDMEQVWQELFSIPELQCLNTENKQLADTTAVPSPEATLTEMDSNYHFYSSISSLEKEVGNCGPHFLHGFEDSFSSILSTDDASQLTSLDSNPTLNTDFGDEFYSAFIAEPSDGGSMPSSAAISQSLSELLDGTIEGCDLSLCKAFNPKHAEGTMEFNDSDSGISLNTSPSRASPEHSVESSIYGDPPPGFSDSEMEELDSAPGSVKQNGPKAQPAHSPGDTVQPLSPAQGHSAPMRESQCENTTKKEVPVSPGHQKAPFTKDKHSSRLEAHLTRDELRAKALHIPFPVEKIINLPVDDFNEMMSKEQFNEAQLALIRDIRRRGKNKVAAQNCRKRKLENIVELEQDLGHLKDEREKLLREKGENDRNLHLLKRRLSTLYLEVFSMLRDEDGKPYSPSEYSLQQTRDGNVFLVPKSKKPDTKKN
# [4] = target: T1, Nuclear factor erythroid 2-related factor 2 (Mus musculus); assay: Activation of Nrf2 in mouse BV-2 cells assessed as upregulation of GCLC protein expression after 24 hrs by Western blot analysis; assay type: cell-based; settings: filed as activator, dose 2.5-10 µM
# [5] = test system: PC-12; assay: Protection against H2O2-induced ROS accumulation in rat PC-12 cells assessed as intracellular ROS level by measuring mean fluorescence intensity pretreated for 12 hrs followed by H2O2 challenge by DCFH-DA staining based flow cytometry; assay type: functional, cell-based; settings: dose 2.5-10 µM
# [6] = test system: PC-12; assay: Protection against 6-OHDA-induced mitochondrial dysfunction in rat PC-12 cells assessed as change in mitochondrial membrane potential at 5 uM pretreated with compound for 12 hrs followed by 6-OHDA challenge by JC-1 staining based flow cytometry (reference value: 56 %); assay type: functional
# [7] = test system: PC-12; assay: Activation of Keap1-Nrf2-ARE pathway in rat PC-12 assessed as upregulation of TrxR1 protein expression measured after 12 hrs by Western blot analysis; settings: filed as activator, dose 2.5-10 µM
# [8] = test system: PC-12; assay: Cytoprotective activity against 6-OHDA induced cell death in rat PC-12 cells assessed as increase in viable cells at 10 uM pretreated for 12 hrs followed by 6-OHDA challenge by MTT assay relative to control; assay type: functional
# [9] = target: T1, Nuclear factor erythroid 2-related factor 2 (Mus musculus); assay: Activation of Nrf2 in mouse BV-2 cells assessed as upregulation of TrxR1 protein expression after 24 hrs by Western blot analysis; assay type: cell-based; settings: filed as activator, dose 2.5-10 µM
# [10] = test system: PC-12; assay: Cytoprotective activity against 6-OHDA induced cell death in rat PC-12 cells assessed as decrease in LDH release pretreated for 12 hrs followed by 6-OHDA challenge by LDH assay; assay type: functional, cell-based; settings: dose 2.5-10 µM
# [11] = test system: PC-12; assay: Protection against 6-OHDA-induced ROS accumulation in rat PC-12 cells assessed as intracellular ROS level by measuring mean fluorescence intensity pretreated for 12 hrs followed by 6-OHDA challenge by DCFH-DA staining based flow cytometry; assay type: functional, cell-based; settings: dose 2.5-10 µM
# [12] = test system: PC-12; assay: Cytoprotective activity against H2O2- induced cell death in rat PC-12 cells assessed as increase in viable cells pretreated for 12 hrs followed by H2O2 challenge by MTT assay; assay type: functional, cell-based; settings: dose 2.5-10 µM
# [13] = test system: PC-12; assay: Protection against H2O2-induced apoptosis in rat PC-12 cells assessed as necrotic cells at 2.5 uM pretreated for 12 hrs followed by H2O2 challenge by annexin V FITC/propidium iodide staining based flow cytometry (reference value: 3.7 %); assay type: functional
# [14] = test system: PC-12; assay: Protection against 6-OHDA-induced apoptosis in rat PC-12 cells assessed as necrotic cells at 2.5 uM pretreated for 12 hrs followed by 6-OHDA challenge by annexin V FITC/propidium iodide staining based flow cytometry (reference value: 3.7 %); assay type: functional
# [15] = test system: PC-12; assay: Protection against H2O2-induced apoptosis in rat PC-12 cells assessed as viable cells at 2.5 uM pretreated for 12 hrs followed by H2O2 challenge by annexin V FITC/propidium iodide staining based flow cytometry (reference value: 73.3 %); assay type: functional; settings: read-out: Activity
# [16] = test system: PC-12; assay: Protection against H2O2-induced apoptosis in rat PC-12 cells assessed as late apoptic cells at 5 uM pretreated for 12 hrs followed by H2O2 challenge by annexin V FITC/propidium iodide staining based flow cytometry (reference value: 20.8 %); assay type: functional
# [17] = test system: PC-12; assay: Protection against 6-OHDA-induced apoptosis in rat PC-12 cells assessed as early apoptotic cells at 5 uM pretreated for 12 hrs followed by 6-OHDA challenge by annexin V FITC/propidium iodide staining based flow cytometry (reference value: 2.4 %); assay type: functional
# [18] = test system: PC-12; assay: Cytoprotective activity against H2O2-induced cell damage in rat PC-12 cells transfected with Nrf2 siRNA at 10 uM; assay type: functional, cell-based
# [19] = test system: PC-12; assay: Protection against H2O2-induced mitochondrial dysfunction in rat PC-12 cells assessed as change in mitochondrial membrane potential at 5 uM pretreated with compound for 12 hrs followed by H2O2 challenge by JC-1 staining based flow cytometry (reference value: 73 %); assay type: functional
# [20] = test system: PC-12; assay: Protection against H2O2-induced mitochondrial dysfunction in rat PC-12 cells assessed as change in mitochondrial membrane potential at 10 uM pretreated with compound for 12 hrs followed by H2O2 challenge by JC-1 staining based flow cytometry (reference value: 73 %); assay type: functional
# [21] = test system: PC-12; assay: Activation of Keap1-Nrf2-ARE pathway in rat PC-12 assessed as induction of accumulation of Nrf2 in nucleus at 10 uM measured after 3 hrs by Western blot analysis; settings: filed as activator
# [22] = test system: PC-12; assay: Protection against H2O2-induced apoptosis in rat PC-12 cells assessed as viable cells at 10 uM pretreated for 12 hrs followed by H2O2 challenge by annexin V FITC/propidium iodide staining based flow cytometry (reference value: 73.3 %); assay type: functional; settings: read-out: Activity
# [23] = test system: PC-12; assay: Protection against 6-OHDA-induced apoptosis in rat PC-12 cells assessed as necrotic cells at 5 uM pretreated for 12 hrs followed by 6-OHDA challenge by annexin V FITC/propidium iodide staining based flow cytometry (reference value: 3.7 %); assay type: functional
# [24] = test system: PC-12; assay: Activation of Keap1-Nrf2-ARE pathway in rat PC-12 assessed as accumulation of Nrf2 in cytosol at 10 uM measured up to 24 hrs by Western blot analysis; assay type: subcellular; settings: filed as activator, time hrs <=24
# [25] = test system: PC-12; assay: Protection against 6-OHDA-induced apoptosis in rat PC-12 cells assessed as early apoptotic cells at 2.5 uM pretreated for 12 hrs followed by 6-OHDA challenge by annexin V FITC/propidium iodide staining based flow cytometry (reference value: 2.4 %); assay type: functional
compound,measurement,setting,value
CN1C(N)=N[C@](C)(c2cc(-n3[se]c4cc(F)ccc4c3=O)ccc2F)CS1(=O)=O,Activity,[1],1.3%
same,Activity,[2],11.8%
same,Activity,[3],Dose-Dependent Effect
same,Activity,[4],Dose-Dependent Effect
same,Activity,[5],Dose-Dependent Effect
same,Activity,[6],64.8%
same,Activity,[7],Active
same,Activity,[8],77%
same,Activity,[9],Dose-Dependent Effect
same,Activity,[10],Dose-Dependent Effect
same,Activity,[11],Dose-Dependent Effect
same,Activity,[12],Dose-Dependent Effect
same,Activity,[13],2.1%
same,Activity,[14],3.3%
same,viability at 2.5 µM,[15],83.6%
same,Activity,[16],8.1%
same,Activity,[17],2.5%
same,Activity,[18],inactive
same,Activity,[19],85.9%
same,Activity,[20],89.1%
same,Activity,[21],Active
same,viability at 10 µM,[22],92.6%
same,Activity,[23],2.3%
same,Activity,[24],Active
same,Activity,[25],2%

# From ChEMBL document CHEMBL4811256, “Synthesis and evaluation of multi-target-directed ligands with BACE-1 inhibitory and Nrf2 agonist activities as potential agents against Alzheimer's disease” (Eur J Med Chem, 2021)
